In patent US5116833A, “Antibiotic C-3 dithioacetal-substituted carbapenem compounds, compositions, and methods of use thereof” (Bristol-Myers Squibb Company, priority 1990, dated 1992):
Converted amounts (≈) assume the structure as drawn. One block for each compound: values may come before it.

Assays:
[1] = Half-life (T1/2) in solution at stated pH (chemical stability); format: physicochemical
[2] = Blood levels and half-life after oral administration in mice; format: in vivo; conditions: mouse, 50 mg/kg
Protocol: (§1) In order to illustrate the potent antibacterial activity and significant oral bioavailability of the carbapenems of the present invention, Tables I, II and III show data for in vitro activities (MIC), oral in vivo activities (PD50) and blood levels after oral administration of the representative drugs (Cmax, t1/2 and AUC), respectively. Blood levels and the half-life of selected compounds of the present invention after oral administration at 50 mg/kg in mice is shown in Table III.

E. coli A-15119 = assay: Protective effect in the oral treatment of infected mice, E. coli A-15119; format: in vivo; conditions: Escherichia coli, A15119, intraperitoneal challenge E. coli A-15119, 6 × 10^6 organisms, read-out: PD50/Treatment
Protocol: as §1, with “respectively.” for “respectively. Blood levels and the half-life of selected compounds of the present invention after oral administration at 50 mg/kg in mice is shown in Table III.”
(§2) The in vivo therapeutic efficacy of the representative compounds after oral administration to mice infected intraperitoneally with 0.5 ml of various bacterial suspension is shown in Table II. The values are given in PD50 (dose in mg/kg to give protection to 50% of the infected mice).

S. pneumoniae A-9585 = assay: Protective effect in the oral treatment of infected mice, S. pneumoniae A-9585; format: in vivo; conditions: Streptococcus pneumoniae, A9585, intraperitoneal challenge S. pneumoniae A-9585, 5 × 10^3 organisms, read-out: PD50/Treatment
Protocol: as §1, with “respectively.” for “respectively. Blood levels and the half-life of selected compounds of the present invention after oral administration at 50 mg/kg in mice is shown in Table III.”
as §2

P. mirabalis A-9900 = assay: Protective effect in the oral treatment of infected mice, P. mirabalis A-9900; format: in vivo; conditions: Mus musculus, intraperitoneal challenge P. mirabalis A-9900, 4 × 10^6 organisms, read-out: PD50/Treatment
Protocol: as §1, with “respectively.” for “respectively. Blood levels and the half-life of selected compounds of the present invention after oral administration at 50 mg/kg in mice is shown in Table III.”
as §2

Staph. aur. PenR = assay: Minimal Inhibitory Concentration, microtiter broth dilution, Staph. aur. PenR; format: cell-based; conditions: Nutrient broth, approximately 500,000 CFU/ml, 35° C. overnight
Excerpt: as §1, with “respectively.” for “respectively. Blood levels and the half-life of selected compounds of the present invention after oral administration at 50 mg/kg in mice is shown in Table III.”
(§3) The determination was done by using microtiter broth dilution using Nutrient broth and final bacterial inoculum of approximately 500,000 CFU/ml from overnight cultures of the bacterium. The microtiter trays were then incubated at 35° C. overnight. The MIC's were determined in μg/ml as the lowest concentration of the drug which inhibits visible growth of the bacterium.

Str. Pneu. A9525 = assay: Minimal Inhibitory Concentration, microtiter broth dilution, Str. Pneu. A9525; format: cell-based; conditions: Nutrient broth, approximately 500,000 CFU/ml, 35° C. overnight
Excerpt: as §1, with “respectively.” for “respectively. Blood levels and the half-life of selected compounds of the present invention after oral administration at 50 mg/kg in mice is shown in Table III.”
as §3

E. coli A15119 = assay: Minimal Inhibitory Concentration, microtiter broth dilution, E. coli A15119; format: cell-based; conditions: Escherichia coli, Nutrient broth, approximately 500,000 CFU/ml, 35° C. overnight
Excerpt: as §1, with “respectively.” for “respectively. Blood levels and the half-life of selected compounds of the present invention after oral administration at 50 mg/kg in mice is shown in Table III.”
as §3

Ps. aeur. A9843 = assay: Minimal Inhibitory Concentration, microtiter broth dilution, Ps. aeur. A9843; format: cell-based; conditions: Nutrient broth, approximately 500,000 CFU/ml, 35° C. overnight
Excerpt: as §1, with “respectively.” for “respectively. Blood levels and the half-life of selected compounds of the present invention after oral administration at 50 mg/kg in mice is shown in Table III.”
as §3

Structure (SMILES): CSCSC1=C(C(=O)O)N2C(=O)[C@H]([C@@H](C)O)[C@H]2C1 [Ia, Potassium or Sodium (5R,6S)-6-[1'(R)-hydroxyethyl]-3-[[(methylthio)methyl]thio]-7-oxo-1-azabicyclo[3.2.0]hept-2-ene-2-carboxylate]
- half-life ([1]; pH 7.4): 20 h

Structure (SMILES): CSCSC1=C(C(=O)O)N2C(=O)[C@H]([C@@H](C)O)[C@H]2[C@H]1C [Ib'']
- AUC [2]: 21000 ng·h/mL
- Cmax [2]: 27000 ng/mL
- half-life [2]: 0.417 h
- ED50 (E. coli A-15119): 3.5 mg/kg
- ED50 (S. pneumoniae A-9585): 1.4 mg/kg
- ED50 (P. mirabalis A-9900): 3.6 mg/kg
- half-life ([1]; pH 2): 0.313 h
- half-life ([1]; pH 7.4): 75 h

Structure (SMILES): C[C@@H](O)[C@H]1C(=O)N2C(C(=O)O)=C(SCSc3ccc(C(=O)NN)cc3)[C@H](C)[C@H]12 [Ibb, (4R,5S,6S)-3-[[[[(p-hydrazinocarbonyl)phenyl]thio]methyl]thio]-6-[1'(R)-hydroxyethyl]-4-methyl-7-oxo-1-azabicyclo[3.2.0]hept-2-ene-2-carboxylate]
- Cmax [2]: < 1000 ng/mL
- ED50 (S. pneumoniae A-9585): 16.5 mg/kg

Structure (SMILES): C[C@@H](O)[C@H]1C(=O)N2C(C(=O)O)=C(SCSc3ccncc3)C[C@H]12 [Ic, Potassium or sodium (5R,6S)-6-[1'(R)-hydroxyethyl]-3-[[[(pyridin-4-yl)thio]methyl]thio]-7-oxo-1-azabicyclo[3.2.0]hept-2-ene-2-carboxylate]
- half-life ([1]; pH 7.4): 15 h

Structure (SMILES): Cc1nnc(SCSC2=C(C(=O)O)N3C(=O)[C@H]([C@@H](C)O)[C@H]3[C@H]2C)o1 [Icc, (4R,5S,6S)-6-[1'(R)-hydroxyethyl]-4-methyl-3-[[[(5-methyl-1,3,4-oxadiazol-2-yl)thio]methyl]thio]-7-oxo-1-azabicyclo-[3.2.0]hept-2-ene-2-carboxylate]
- MIC (Staph. aur. PenR): 0.03 µg/mL (≈ 0.0808 µM)
- AUC [2]: 11000 ng·h/mL
- Cmax [2]: 20000 ng/mL
- half-life [2]: 0.233 h
- ED50 (E. coli A-15119): 1.4 mg/kg
- MIC (Str. Pneu. A9525): 0.001 µg/mL (≈ 0.00269 µM)
- ED50 (S. pneumoniae A-9585): 0.2 mg/kg
- MIC (E. coli A15119): 0.004 µg/mL (≈ 0.0108 µM)
- MIC (Ps. aeur. A9843): 32 µg/mL (≈ 86.2 µM)

Structure (SMILES): C[C@@H](O)[C@H]1C(=O)N2C(C(=O)O)=C(SCSc3ccccc3)[C@H](C)[C@H]12 [Id, (4R,5S,6S)-6-[1'(R)-hydroxyethyl]-4-methyl-3-[[(phenylthio)methyl]thio]-7-oxo-1-azabicyclo[3.2.0]hept-2-ene-2-carboxylate]
- half-life ([1]; pH 2): 0.313 h
- half-life ([1]; pH 7.4): 100 h

Structure (SMILES): Cc1nnc(SCSC2=C(C(=O)O)N3C(=O)[C@H]([C@@H](C)O)[C@H]3[C@H]2C)s1 [Idd, (4R,5S,6S)-6-[1'(R)-hydroxyethyl]-4-methyl-3-[[[(5-methyl-1,3,4-thiadiazol-2-yl)thio]methyl]thio]-7-oxo-1-azabicyclo[3.2.0]hept-2-ene-2-carboxylate]
- MIC (Staph. aur. PenR): 0.016 µg/mL (≈ 0.0413 µM)
- AUC [2]: 10000 ng·h/mL
- Cmax [2]: 12000 ng/mL
- half-life [2]: 0.4 h
- ED50 (E. coli A-15119): 3.85 mg/kg
- MIC (Str. Pneu. A9525): 0.001 µg/mL (≈ 0.00258 µM)
- ED50 (S. pneumoniae A-9585): 0.3 mg/kg
- MIC (E. coli A15119): 0.008 µg/mL (≈ 0.0206 µM)
- MIC (Ps. aeur. A9843): 32 µg/mL (≈ 82.6 µM)

Structure (SMILES): C[C@@H](O)[C@H]1C(=O)N2C(C(=O)O)=C(SCSc3ccccn3)C[C@H]12 [Ie, Sodium (5R,6S)-6-[1'(R)-1-hydroxyethyl]-3-[[[(pyridin-2-yl)thio]methyl]thio]-7-oxo-1-azabicyclo[3.2.0]hept-2-ene-2-carboxylate]
- half-life ([1]; pH 7.4): 19 h

Structure (SMILES): C[C@@H](O)[C@H]1C(=O)N2C(C(=O)O)=C(SCSc3ccccn3)[C@H](C)[C@H]12 [If, Sodium (4R,5S,6S)-6-[1'(R)-hydroxyethyl]-4-methyl-3-[[[(pyridin-2-yl)thio]methyl]thio]-7-oxo-1-azabicyclo[3.2.0]hept-2-ene-2-carboxylate]
- half-life ([1]; pH 2): 0.6 h
- half-life ([1]; pH 7.4): 79 h

Structure (SMILES): C[C@@H](O)[C@H]1C(=O)N2C(C(=O)O)=C(SCSc3ccncc3)[C@H](C)[C@H]12 [Ig, (4R,5S,6S)-6-[1'(R)-hydroxyethyl]-4-methyl-3-[[[(pyridin-4-yl)thio]methyl]thio]-7-oxo-1-azabicyclo[3.2.0]hept-2-ene-2-carboxylate]
- half-life ([1]; pH 2): 0.567 h

Structure (SMILES): C[C@@H](O)[C@H]1C(=O)N2C(C(=O)O)=C(SCSc3cccnc3)C[C@H]12 [Ih, Sodium (5R,6S)-6-[1'(R)-hydroxyethyl]-3-[[[(pyridin-3-yl)thio]methyl]thio]-7-oxo-1-azabicyclo[3.2.0]hept-2-ene-2-carboxylate]
- half-life ([1]; pH 2): 0.0333 h
- half-life ([1]; pH 7.4): 22 h

Structure (SMILES): C[C@@H](O)[C@H]1C(=O)N2C(C(=O)O)=C(SCSc3ccc(Cl)c(Cl)c3)[C@H](C)[C@H]12 [Iq, (4R,5S,6S)-3-[[[(3,4-dichlorophenyl)thio]methyl]thio]-6-[1'(R)-hydroxyethyl]-4-methyl-7-oxo-1-azabicyclo-[3.2.0]hept-2-ene-2-carboxylate]
- AUC [2]: 24000 ng·h/mL
- Cmax [2]: 33000 ng/mL
- half-life [2]: 0.417 h
- ED50 (E. coli A-15119): 25 mg/kg
- half-life ([1]; pH 7.4, 37° C.): 99 h

Further lines, results first:

- half-life ([1]; pH 2, 37° C.): 0.333 h
Structure (SMILES): CSC(C)SC1=C(C(=O)O)N2C(=O)[C@H]([C@@H](C)O)[C@H]2[C@H]1C (single isomer, unassigned) [Iv-A]

- T1/2 ([1]; pH 2, 37° C.): 0.333 h
- half-life ([1]; pH 7.4, 37° C.): 56 h
Structure (SMILES): CSC(C)SC1=C(C(=O)O)N2C(=O)[C@H]([C@@H](C)O)[C@H]2[C@H]1C (single isomer, unassigned) [Iv-B]

- half-life ([1]; pH 2): 0.583 h
- half-life ([1]; pH 7.4): 74 h
Structure (SMILES): C[C@@H](O)[C@H]1C(=O)N2C(C(=O)O)=C(SCSc3cccnc3)[C@H](C)[C@H]12 [Ii, (4R,5S,6S)-6-[1'(R)-hydroxyethyl]-4-methyl-3-[[[(pyridin-3-yl)thio]methyl]thio]-7-oxo-1-azabicyclo[3.2.0]hept-2-ene-2-carboxylate]

- half-life ([1]; pH 7.4): 26 h
Structure (SMILES): C[C@@H](O)[C@H]1C(=O)N2C(C(=O)O)=C(SCSc3ccc(Cl)cc3)C[C@H]12 [Ij, (5R,6S)-6-[1'(R)-hydroxyethyl]-3-[[[(p-chlorophenyl)thio]methyl]thio]-7-oxo-1-azabicyclo[3.2.0]hept-2-ene-2-carboxylate]

- MIC (Staph. aur. PenR): 0.03 µg/mL (≈ 0.075 µM)
- AUC [2]: 34000 ng·h/mL
- Cmax [2]: 40000 ng/mL
- half-life [2]: 0.55 h
- MIC (Str. Pneu. A9525): 0.004 µg/mL (≈ 0.01 µM)
- MIC (E. coli A15119): 2 µg/mL (≈ 5 µM)
- MIC (Ps. aeur. A9843): 63 µg/mL (≈ 158 µM)
- half-life ([1]; pH 7.4): 97 h
Structure (SMILES): C[C@@H](O)[C@H]1C(=O)N2C(C(=O)O)=C(SCSc3ccc(Cl)cc3)[C@H](C)[C@H]12 [Ik, (4R,5S,6S)-6-[1' (R)-hydroxyethyl]-4-methyl-3-[[[(p-chlorophenyl)thio]methyl]thio]-7-oxo-1-azabicyclo[3.2.0]hept-2-ene-2-carboxylate]

- half-life ([1]; pH 7.4): 46 h
Structure (SMILES): C[C@@H](O)[C@H]1C(=O)N2C(C(=O)O)=C(SC[S+](C)[O-])[C@H](C)[C@H]12 (some centres unmarked) [Im]

- half-life ([1]; pH 7.4, 37° C.): 106 h
Structure (SMILES): C[C@@H](O)[C@H]1C(=O)N2C(C(=O)O)=C(SC[S+]([O-])c3ccc(Cl)cc3)[C@H](C)[C@H]12 (stereo partly drawn) [In, (4R,5S,6S)-3-[[[(p-chlorophenyl)sulfinyl]methyl]thio]-6-[1'(R)-hydroxyethyl]-4-methyl-7-oxo-1-azabicyclo[3.2.0]hept-2-ene-2-carboxylate]

- half-life ([1]; pH 7.4, 37° C.): 77 h
Structure (SMILES): C[C@@H](O)[C@H]1C(=O)N2C(C(=O)O)=C(SCSCc3cccnc3)[C@H](C)[C@H]12 [Io, (4R,5S,6S)-6-[1'(R)-hydroxyethyl]-4-methyl-3-[[[[(pyridin-3-yl)methyl]thio]methyl]thio]-7-oxo-1-azabicyclo-[3.2.0]hept-2-ene-2-carboxylate]

- half-life ([1]; pH 7.4, 37° C.): 43 h
Structure (SMILES): C[C@@H](O)[C@H]1C(=O)N2C(C(=O)O)=C(SC[S+]([O-])Cc3cccnc3)[C@H](C)[C@H]12 (stereo partly drawn) [Ip, (4R,5S,6S)-6-[1'(R)-hydroxyethyl]-4-methyl-3-[[[[(pyridin-3-yl)methyl]sulfinyl]methyl]thio]-7-oxo-1-azabicyclo[3.2.0]hept-2-ene-2-carboxylate]

- half-life ([1]; pH 7.4, 37° C.): 41 h
Structure (SMILES): C[C@@H](O)[C@H]1C(=O)N2C(C(=O)O)=C(SCSc3c(F)c(F)c(F)c(F)c3F)[C@H](C)[C@H]12 [Ir, Sodium (4R,5S,6S)-6-[1'(R)-hydroxyethyl]-4-methyl-3-[[[(2,3,4,5,6-pentafluorophenyl)thio]methyl]thio]-7-oxo-1-azabicyclo[3.2.0]hept-2-ene-2-carboxylate]
